From PubChem BioAssay (NCI)
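How tested: cells in 96-well plates exposed to compound for 48 hours at five concentrations. Definition used: TGI = concentration required for complete inhibition of growth.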

How the values were obtained:
Assay in all cases: DTP human tumour cell line panel, 48 h
MCF7 breast = test system: MCF7 breast
NCI-H522 lung = test system: NCI-H522 lung
NCI/ADR-RES ovarian = test system: NCI/ADR-RES ovarian
PC-3 prostate = test system: PC-3 prostate
SF-268 CNS = test system: SF-268 CNS
SF-295 CNS = test system: SF-295 CNS
SK-OV-3 ovarian = test system: SK-OV-3 ovarian
SNB-75 CNS = test system: SNB-75 CNS
SR leukemia = test system: SR leukemia
SW-620 colon = test system: SW-620 colon
T-47D breast = test system: T-47D breast

Structure (SMILES) | TGI (MCF7 breast) | TGI (NCI-H522 lung) | TGI (NCI/ADR-RES ovarian) | TGI (PC-3 prostate) | TGI (SF-268 CNS) | TGI (SF-295 CNS) | TGI (SK-OV-3 ovarian) | TGI (SNB-75 CNS) | TGI (SR leukemia) | TGI (SW-620 colon) | TGI (T-47D breast)
C=C(C)[C@@H]1CC[C@@H](C)[C@](O)([C@@H]2C[C@@H]([C@H](COC(=O)c3ccccc3)OC(=O)c3ccccc3)OC2=O)C1 | > 100 µM | > 100 µM | > 100 µM | > 100 µM | > 100 µM | > 100 µM | > 100 µM | > 100 µM | > 100 µM | > 100 µM | –
NC12CC3CC(C1)CC(Cl)(C3)C2 | – | > 100 µM | – | – | – | – | > 100 µM | > 100 µM | – | > 100 µM | –
C[C@]12CC(c3ccccc3O1)C(C#N)C(=O)N2 (some centres not stated) | > 100 µM | – | > 100 µM | > 100 µM | > 100 µM | – | > 100 µM | > 100 µM | > 100 µM | > 100 µM | > 100 µM
COc1ccc(/C=C2\N=C(c3ccccc3)N(Nc3nnc(NN4C(=O)/C(=C/c5ccc(OC)cc5)N=C4c4ccccc4)c4ccccc34)C2=O)cc1 | – | > 100 µM | – | – | > 100 µM | > 100 µM | – | > 100 µM | 90.5 µM | > 100 µM | –
CCOC(=O)c1nc2ccc(Cl)cc2c2c1CCO2 | – | > 100 µM | – | – | > 100 µM | > 100 µM | > 100 µM | 88.6 µM | – | > 100 µM | –
CO/C(=N\N=C\c1ccc(OC)cc1OC)c1ccncc1 | > 10 µM | – | > 10 µM | > 10 µM | > 10 µM | > 10 µM | > 10 µM | > 10 µM | > 10 µM | > 10 µM | > 10 µM
O=C1/C(=C/c2ccc(Cl)cc2)NC(=S)N1CN1CCOCC1 | > 100 µM | – | > 100 µM | > 100 µM | > 100 µM | > 100 µM | > 100 µM | > 100 µM | – | > 100 µM | –
COC(=O)[C@H]1C=C[C@@H](C)n2c(=O)c3ccccc3c(=O)n21 | – | > 100 µM | – | – | > 100 µM | > 100 µM | > 100 µM | > 100 µM | > 100 µM | > 100 µM | –
NC(=O)c1csc(CCCCCCc2nc(C(N)=O)cs2)n1 | – | > 100 µM | – | – | > 100 µM | > 100 µM | > 100 µM | > 100 µM | > 100 µM | > 60.7 µM | –
CC(=O)OC1OC2C(NC(=O)OC(C)(C)C)C1CC2(OCc1ccccc1)OCc1ccccc1 (configuration not stated) | – | 30.5 µM | – | – | > 100 µM | > 91.5 µM | 74.9 µM | > 100 µM | > 100 µM | > 100 µM | –
NC1=CC(C(=O)c2ccncc2)c2nc3ccccc3nc21 (configuration not stated) | > 100 µM | > 100 µM | > 100 µM | > 100 µM | > 100 µM | > 100 µM | > 100 µM | > 100 µM | – | > 100 µM | > 100 µM
Cn1c(=O)c2c(nc(C[N+]3([O-])CCOCC3)n2C)n(C)c1=O | – | > 100 µM | – | – | > 100 µM | – | > 100 µM | > 100 µM | > 100 µM | > 100 µM | –
COc1cccc(-c2cccc(SC)n2)n1 | > 100 µM | – | > 100 µM | > 100 µM | – | > 100 µM | > 100 µM | > 100 µM | 55.5 µM | > 100 µM | 75.1 µM
c1ccc2[nH]c3[nH]c4[nH]c5ccccc5[nH]c4[nH]c3[nH]c2c1 | > 100 µM | > 100 µM | > 100 µM | > 100 µM | > 100 µM | > 100 µM | > 100 µM | 53.4 µM | > 100 µM | > 100 µM | –
O=C(CSCC(=O)N/N=C/c1cccc(OCc2ccccc2)c1)N/N=C/c1cccc(OCc2ccccc2)c1 | > 100 µM | > 100 µM | > 100 µM | 97.8 µM | > 100 µM | > 100 µM | > 100 µM | > 100 µM | – | > 100 µM | > 100 µM
O=C1Nc2ccccc2[C@]12C[C@H]2c1ccccn1 | > 100 µM | > 100 µM | > 100 µM | > 100 µM | > 100 µM | > 100 µM | > 100 µM | – | – | > 100 µM | > 100 µM
COc1ccc(-n2c3c(c4cc(O)ccc42)C(=O)c2ccccc2C3=O)cc1 | > 100 µM | > 100 µM | 24.9 µM | 87.3 µM | 14.8 µM | 17.6 µM | 2.73 µM | – | 56.9 µM | > 100 µM | > 100 µM
CCOc1ccc(N/C(=C(/C(Cl)=C(/Cl)NCCO)[N+](=O)[O-])n2nnc3ccccc32)cc1 | 38.8 µM | – | 64 µM | 86.4 µM | 41 µM | > 100 µM | > 100 µM | > 100 µM | – | 39.9 µM | 37.6 µM
CCOC(=O)c1nnsc1NC(=O)Nc1ccc(Cl)cc1 | – | 50.1 µM | 72.5 µM | > 100 µM | > 100 µM | – | – | 88 µM | – | > 100 µM | > 100 µM
COc1cc(C)cc2c1C(=O)C(Br)=CC2=O | 21.6 µM | 3.19 µM | 74.9 µM | 31.3 µM | 35.8 µM | 30 µM | 33.8 µM | 31.7 µM | – | 3.62 µM | 4.75 µM
C=CCNC(=O)/C(Cc1cc(Br)c(OC)c(Br)c1O)=N\O | > 100 µM | 6.07 µM | 11.4 µM | > 100 µM | 15.7 µM | 21.5 µM | – | – | > 100 µM | 26.4 µM | –
COC(C/C(=C/CO[Si](C(C)C)(C(C)C)C(C)C)C(=O)Nc1ccccc1I)OC | – | 6.05 µM | > 100 µM | 62.2 µM | > 100 µM | 28.2 µM | > 100 µM | > 100 µM | > 100 µM | > 100 µM | > 100 µM
COc1ccc2c(c1)N(C(C)=O)CN1C(=O)CCC21 (configuration not stated) | > 100 µM | > 100 µM | > 100 µM | > 100 µM | > 100 µM | > 100 µM | > 100 µM | > 100 µM | – | > 100 µM | > 100 µM
CCOC(OCC)c1ccc(/C=C/c2cc(OC)c(OC)c(OC)c2)cc1 | – | > 100 µM | – | – | 71.8 µM | 40.4 µM | – | 57.5 µM | – | 56.3 µM | –
